Data as given in US20240368164A1, “PURINE NUCLEOSIDES, THEIR INTERMEDIATES, AND METHODS OF PREPARATION THEREOF” (Astrocyle Pharmaceuticals, Inc., priority 2021, published 2024).

Molecular target: T1, Human A3R (Homo sapiens, UniProt P0DMS8)
T1 construct: expressed in transfected cells
T1 sequence (P0DMS8 1-318): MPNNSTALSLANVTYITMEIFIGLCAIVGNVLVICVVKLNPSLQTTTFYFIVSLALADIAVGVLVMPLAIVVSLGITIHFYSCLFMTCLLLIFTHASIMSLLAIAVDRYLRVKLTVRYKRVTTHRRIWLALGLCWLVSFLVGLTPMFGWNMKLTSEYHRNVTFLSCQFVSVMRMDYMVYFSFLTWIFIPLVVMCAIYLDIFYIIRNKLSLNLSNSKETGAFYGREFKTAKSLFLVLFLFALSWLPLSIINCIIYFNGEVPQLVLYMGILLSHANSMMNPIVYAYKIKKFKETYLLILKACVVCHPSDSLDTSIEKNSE
Test: Radioligand binding at human A3 adenosine receptor ([125I]I-AB-MECA, CHO cell membranes)
Conditions: n = 1; read-out: Affinity (nM) at Human A3R
Procedure: [3H]R—N^6-Phenylisopropyladenosine ([3H]R-PIA, 63 Ci/mmol), [^3H](2-[p-(2-carboxyethyl)phenyl-ethylamino]-5′-N-ethylcarboxamido-adenosine) ([^3H]CGS21680, 40.5 Ci/mmol) and [^125I]N^6-(4-amino-3-iodobenzyl)adenosine-5′-N-methyluronamide ([^125I]I-AB-MECA, 2200 Ci/mmol) were purchased from Perkin-Elmer Life and Analytical Science (Boston, MA). Test compounds were prepared as 5 mM stock solutions in DMSO and stored frozen.
Cell Culture and Membrane Preparation—CHO cells stably expressing the recombinant hA1 and hA3ARs and HEK293 cells stably expressing the hA2AAR were cultured in Dulbecco's modified Eagle medium (DMEM) and F12 (1:1) supplemented with 10% fetal bovine serum, 100 units/mL penicillin, 100 μg/mL streptomycin, and 2 μmol/mL glutamine. In addition, 800 μg/mL geneticin was added to the A2A media, while 500 μg/mL hygromycin was added to the A1 and A3 media. After harvesting, cells were homogenized and suspended in PBS. Cells were then centrifuged at 240 g for 5 min, and the pellet was resuspended in 50 mM Tris-HCl buffer (pH 7.5) containing 10 mM MgCl2. The suspension was homogenized and was then ultra-centrifuged at 14,330 g for 30 min at 4° C. The resultant pellets were resuspended in Tris buffer, incubated with adenosine deaminase (3 units/mL) for 30 min at 37° C. The suspension was homogenized with an electric homogenizer for 10 sec, pipetted into 1 mL vials and then stored at −80° C. until the binding experiments. The protein concentration was measured using the BCA Protein Assay Kit from Pierce Biotechnology, Inc. (Rockford, IL).
Binding assays: Into each tube in the binding assay was added 50 μL of increasing concentrations of the test ligand in Tris-HCl buffer (50 mM, pH 7.5) containing 10 mM MgCl2, 50 μL of the appropriate agonist radioligand, and finally 100 μL of membrane suspension. For the A1AR (22 μg of protein/tube) the radioligand used was [^3H]R-PIA (final concentration of 3.5 nM). For the A2AAR (20 μg/tube) the radioligand used was [^3H]CGS21680 (10 nM). For the A3AR ([…]) the radioligand used was [^125I]I-AB-MECA (0.34 nM). Nonspecific binding was determined using a final concentration of 10 μM NECA diluted with the buffer. The mixtures were incubated at 25° C. for 60 min in a shaking water bath. Binding reactions were terminated by filtration through Brandel GF/B filters under a reduced pressure using a M-24 cell harvester (Brandel, Gaithersburg, MD). Filters were washed three times with 3 mL of 50 mM ice-cold Tris-HCl buffer (pH 7.5). Filters for A1 and A2AAR binding were placed in scintillation vials containing 5 mL of Hydrofluor scintillation buffer and counted using a Perkin Elmer Liquid Scintillation Analyzer (Tri-Carb 2810TR). Filters for A3AR binding were counted using a Packard Cobra II T-counter. The Ki values were determined using GraphPad Prism for all assays.
A3R binding of selected compounds. Using methods described herein, the affinity of selected compounds at the A3 receptor was measured.

CSc1nc(N)c2ncn([C@H]3[C@H](O)[C@H](O)[C@]4(CO)C[C@H]34)c2n1 [Compound I-1, (1R,2R,3S,4R,5S)-4-(6-Amino-2-(methylthio)-9H-purin-9-yl)-1-(hydroxymethyl)bicyclo[3.1.0]hexane-2,3-diol]
Ki: 1490 nM
